# Test results as given in patent publication US20250255847A1, “[…]s: Novel Drugs for Triple Negative Breast Cancer” (SIMMARON RSEARCH INC, priority 2024, published 2025).
# pEC50, pIC50: −log10 of the molar value.
# What was measured:
# [1] = target: T1, full-length STAT5b protein (Homo sapiens, UniProt P51692); test: Protein thermal shift binding assay with STAT5b; settings: increasing doses
# T1 construct: full-length STAT5b protein melting was assessed with (J) SIM-1, (K) SIM-2, and (L) stattic
# T1 sequence (P51692 1-787): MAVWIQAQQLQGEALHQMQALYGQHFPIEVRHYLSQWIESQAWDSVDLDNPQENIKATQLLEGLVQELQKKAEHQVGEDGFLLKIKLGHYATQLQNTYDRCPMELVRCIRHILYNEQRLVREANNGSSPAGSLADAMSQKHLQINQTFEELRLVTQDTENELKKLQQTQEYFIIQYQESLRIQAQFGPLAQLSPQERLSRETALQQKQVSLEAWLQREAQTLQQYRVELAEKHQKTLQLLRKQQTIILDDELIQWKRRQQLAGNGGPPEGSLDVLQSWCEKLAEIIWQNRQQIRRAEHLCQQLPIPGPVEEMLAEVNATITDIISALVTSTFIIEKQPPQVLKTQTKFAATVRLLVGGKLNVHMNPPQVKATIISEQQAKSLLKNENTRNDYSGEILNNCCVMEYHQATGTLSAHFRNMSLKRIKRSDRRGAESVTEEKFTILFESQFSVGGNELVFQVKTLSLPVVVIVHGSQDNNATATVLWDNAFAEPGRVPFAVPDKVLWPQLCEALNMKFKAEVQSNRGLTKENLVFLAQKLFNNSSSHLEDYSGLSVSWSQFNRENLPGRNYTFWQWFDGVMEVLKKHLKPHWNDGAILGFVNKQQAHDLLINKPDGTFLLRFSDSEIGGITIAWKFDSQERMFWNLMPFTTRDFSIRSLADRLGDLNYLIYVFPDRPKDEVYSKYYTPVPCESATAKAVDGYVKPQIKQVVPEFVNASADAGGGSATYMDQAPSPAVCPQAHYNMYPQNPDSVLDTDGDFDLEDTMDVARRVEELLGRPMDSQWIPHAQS
# Experimental: (§1) FIG. 5 illustrates an embodiment of the present invention and illustrates evaluations of SIM-1 and SIM-2 as STAT3 inhibitors. (A) Protein thermal shift assay was performed to assess the melting of purified recombinant STAT3 (blue; 0.5 μg protein) (Tm=melting temperature=68.88° C.). The representative melting curves were derived after adding SIM-1 (red; 4 nM), SIM-2 (purple; 8 nM), and positive control stattic (grey; 20 nM) to the STAT3 protein. The differences of melting temperature (ΔTm) between pure protein and protein+ligands are −4.54° C., −4.16° C., and 0.39° C. for SIM-1, SIM-2, and stattic (ΔTm^cut-off>2° C.). (B) Phospho protein array analysis was conducted in cell lysates of MDA-MB-468 cells treated with DMSO control (top left), 25 ng/mL EGF (top right), EGF+10 nM SIM-1 (bottom left), and EGF+SIM-2 (bottom right) for 24 hrs. Each colored arrowhead represents a specific phosphoprotein, and the description was added in the bottom of array images. S=serine and Y=tyrosine. Relative levels of (C) Tyrosine 705 (Y705) phosphorylated STAT3, (D) Serine 727 (S727) phosphorylated STAT3, (E) Tyrosine 693 (Y693) phosphorylated STAT4, (F) Tyrosine 694 ([…]) phosphorylated STAT5A had been derived after normalizing the spot densities (n=5) with respective β-actin spots. Results are mean±SD of five different spot analyses. One-way ANOVA was adopted to test the significance of mean between groups at **p<0.01, and ****p<0.0001. Ns=no significance. Thermal shift assays of increasing doses of (G) SIM-1, (H) SIM-2, and (I) stattic with purified STAT1 protein (0.5 μg protein). The respective ΔTm values were given with the plot after matching with the color code. Similarly, full-length STAT5b protein melting was assessed with (J) SIM-1, (K) SIM-2, and (L) stattic. Results are confirmed after three different experiments.
# (§2) To confirm the result, PTS assay of STAT1 with SIM-1 (FIG. 5G), SIM-2 (FIG. 5H), and stattic (FIG. 5I) was performed. […] Similar results were observed while performing the binding assay with STAT5b.
# [2] = tested on: TNBC cells; settings: cited from earlier work
# [3] = target: T2, STAT3 (Homo sapiens, UniProt P40763); settings: read-out: IC50 as STAT3 inhibitor; cited from earlier work
# Target sequence in this assay (P40763 whole entry, species assumed): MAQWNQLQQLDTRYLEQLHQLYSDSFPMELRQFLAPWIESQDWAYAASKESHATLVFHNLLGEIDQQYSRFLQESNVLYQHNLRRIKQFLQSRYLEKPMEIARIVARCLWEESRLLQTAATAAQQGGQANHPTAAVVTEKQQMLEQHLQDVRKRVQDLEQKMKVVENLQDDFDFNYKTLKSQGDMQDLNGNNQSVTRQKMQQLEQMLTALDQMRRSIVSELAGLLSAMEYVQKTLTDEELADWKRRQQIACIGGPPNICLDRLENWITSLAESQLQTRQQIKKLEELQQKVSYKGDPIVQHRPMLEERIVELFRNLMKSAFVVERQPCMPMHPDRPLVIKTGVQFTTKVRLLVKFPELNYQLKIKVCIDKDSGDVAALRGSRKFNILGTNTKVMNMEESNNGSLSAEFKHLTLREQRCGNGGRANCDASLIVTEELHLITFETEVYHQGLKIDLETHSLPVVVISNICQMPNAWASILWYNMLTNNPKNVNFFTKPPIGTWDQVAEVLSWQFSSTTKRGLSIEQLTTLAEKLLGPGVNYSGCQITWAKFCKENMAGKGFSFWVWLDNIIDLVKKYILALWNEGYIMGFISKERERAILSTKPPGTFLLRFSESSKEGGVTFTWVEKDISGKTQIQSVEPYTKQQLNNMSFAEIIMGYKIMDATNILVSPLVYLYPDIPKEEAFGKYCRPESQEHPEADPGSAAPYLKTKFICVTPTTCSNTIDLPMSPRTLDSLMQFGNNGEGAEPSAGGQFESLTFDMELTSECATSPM
# [4] = target: T3, purified STAT1 protein (Homo sapiens, UniProt P42224); test: Protein thermal shift (PTS) assay of STAT1; type: binding; settings: 10 and 20 μM
# T3 sequence (P42224 1-750): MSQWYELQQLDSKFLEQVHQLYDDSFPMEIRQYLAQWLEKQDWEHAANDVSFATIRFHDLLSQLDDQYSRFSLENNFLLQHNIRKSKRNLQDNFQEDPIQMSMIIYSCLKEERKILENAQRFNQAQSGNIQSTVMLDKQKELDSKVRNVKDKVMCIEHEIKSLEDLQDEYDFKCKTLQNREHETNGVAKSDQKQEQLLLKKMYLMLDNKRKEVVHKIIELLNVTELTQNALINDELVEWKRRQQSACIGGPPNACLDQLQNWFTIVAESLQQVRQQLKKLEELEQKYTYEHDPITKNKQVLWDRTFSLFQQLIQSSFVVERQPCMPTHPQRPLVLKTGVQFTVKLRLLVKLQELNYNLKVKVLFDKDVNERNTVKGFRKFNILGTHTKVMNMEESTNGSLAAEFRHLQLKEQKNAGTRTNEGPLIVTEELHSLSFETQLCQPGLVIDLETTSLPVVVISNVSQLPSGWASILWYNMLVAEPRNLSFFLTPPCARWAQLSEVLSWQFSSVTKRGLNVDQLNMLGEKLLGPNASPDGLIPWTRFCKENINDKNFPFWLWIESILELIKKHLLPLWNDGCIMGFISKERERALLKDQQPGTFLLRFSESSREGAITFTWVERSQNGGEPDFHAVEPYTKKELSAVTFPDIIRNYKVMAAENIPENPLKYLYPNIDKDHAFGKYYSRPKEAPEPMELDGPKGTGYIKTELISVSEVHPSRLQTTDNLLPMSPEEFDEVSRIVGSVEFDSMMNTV
# Experimental: as §1, §2
# [5] = target: T2, STAT3; test: Protein thermal shift assay with recombinant STAT3; type: binding; design: purchased Active motif 81095
# Experimental: as §1
# Target sequence in this assay (P40763 whole entry): as the sequence (P40763 whole entry, species assumed) above
# FIG. 6 illustrates an embodiment of the present invention and illustrates dose-dependent curves of maximum fluorescence for SIM1 and SIM2. Protein thermal shift assay of recombinant STAT3 was performed with increasing doses of (A) SIM-1, (B) SIM-2, and (C) positive control “Stattic”. The maximum fluorescence for each dose was derived and then plotted in GraphPad Prism software with respective doses. The resultant non-liner hyperbolic curves provide half-maximal binding (EC50) for all three compounds.
# This example provides a representative study of the present disclosure to test if SIM1 and SIM2 served as ligands of STAT3. Therefore, the present invention adopted a protein thermal shift assay in which […] of recombinant human STAT3 protein (active motif) was incubated with increasing doses of SIM1 and SIM2 followed by the execution of melting analysis starting from 25 to 95° C. as described elsewhere.
# [6] = tested on: tumor burden; settings: in vivo; cited from earlier work
Structure (SMILES),shift in the melting curve of STAT5b [1],CT50 [2],doses causing apoptosis of TNBC tumors [2] [µM],pIC50 [3],shift in the melting curve of STAT1 [4],"ΔTm of STAT3 ([5]; 20 nM ligand, cut-off 2° C.) [°C]","pEC50 ([5]; non-linear hyperbolic binding curve, read-out: EC50 (half-maximal binding, maximum fluorescence versus dose))",dose effectively reducing tumor burden [6]
"O=[N+]([O-])c1ccc2c(c1)S(=O)(=O)C=C2 [stattic, reference compound]",unable to produce any significant shift,micromolar range,10 to 20,5.30,did not produce any shift,0.39,~5.70,
NC(=O)CC[C@H](NC(=O)[C@@H]1CC[C@@H]2CCN(C(=O)CCCCCC#Cc3cccc4c3CN(C3CCC(=O)NC3=O)C4=O)C[C@H](NC(=O)c3cc4cc(C(F)(F)P(=O)(O)O)ccc4[nH]3)C(=O)N21)C(=O)NC(c1ccccc1)c1ccccc1 (stereo partly drawn) [SD36],,micromolar range,,,,,,25-50 mg/Kg body weight (bwt)
